In patent publication US5424456A, “N-arylalkylderivatives of 2-aminomethyl-2,3-dihydro-1,4-benzodioxine and the process of preparation thereof” (Vyzkumny Ustav Pro Farmacii A Biochemii s.p., priority 1991, dated 1995):

Experiments:
[1] = target: T1, calcium channel (Rattus norvegicus, UniProt P22002); test: Calcium channel blocking activity, K+ depolarization-induced contraction of helically cut rat aortic strip; details: Krebs-Henselheit solution, 37° C., cumulative doses, read-out: IC50 (50% decrease of contraction of the aortic strip)
T1 construct: helically cut rat aortic strip; from tissue; host or cells: rat aorta (helically cut strip)
T1 sequence (P22002 whole entry): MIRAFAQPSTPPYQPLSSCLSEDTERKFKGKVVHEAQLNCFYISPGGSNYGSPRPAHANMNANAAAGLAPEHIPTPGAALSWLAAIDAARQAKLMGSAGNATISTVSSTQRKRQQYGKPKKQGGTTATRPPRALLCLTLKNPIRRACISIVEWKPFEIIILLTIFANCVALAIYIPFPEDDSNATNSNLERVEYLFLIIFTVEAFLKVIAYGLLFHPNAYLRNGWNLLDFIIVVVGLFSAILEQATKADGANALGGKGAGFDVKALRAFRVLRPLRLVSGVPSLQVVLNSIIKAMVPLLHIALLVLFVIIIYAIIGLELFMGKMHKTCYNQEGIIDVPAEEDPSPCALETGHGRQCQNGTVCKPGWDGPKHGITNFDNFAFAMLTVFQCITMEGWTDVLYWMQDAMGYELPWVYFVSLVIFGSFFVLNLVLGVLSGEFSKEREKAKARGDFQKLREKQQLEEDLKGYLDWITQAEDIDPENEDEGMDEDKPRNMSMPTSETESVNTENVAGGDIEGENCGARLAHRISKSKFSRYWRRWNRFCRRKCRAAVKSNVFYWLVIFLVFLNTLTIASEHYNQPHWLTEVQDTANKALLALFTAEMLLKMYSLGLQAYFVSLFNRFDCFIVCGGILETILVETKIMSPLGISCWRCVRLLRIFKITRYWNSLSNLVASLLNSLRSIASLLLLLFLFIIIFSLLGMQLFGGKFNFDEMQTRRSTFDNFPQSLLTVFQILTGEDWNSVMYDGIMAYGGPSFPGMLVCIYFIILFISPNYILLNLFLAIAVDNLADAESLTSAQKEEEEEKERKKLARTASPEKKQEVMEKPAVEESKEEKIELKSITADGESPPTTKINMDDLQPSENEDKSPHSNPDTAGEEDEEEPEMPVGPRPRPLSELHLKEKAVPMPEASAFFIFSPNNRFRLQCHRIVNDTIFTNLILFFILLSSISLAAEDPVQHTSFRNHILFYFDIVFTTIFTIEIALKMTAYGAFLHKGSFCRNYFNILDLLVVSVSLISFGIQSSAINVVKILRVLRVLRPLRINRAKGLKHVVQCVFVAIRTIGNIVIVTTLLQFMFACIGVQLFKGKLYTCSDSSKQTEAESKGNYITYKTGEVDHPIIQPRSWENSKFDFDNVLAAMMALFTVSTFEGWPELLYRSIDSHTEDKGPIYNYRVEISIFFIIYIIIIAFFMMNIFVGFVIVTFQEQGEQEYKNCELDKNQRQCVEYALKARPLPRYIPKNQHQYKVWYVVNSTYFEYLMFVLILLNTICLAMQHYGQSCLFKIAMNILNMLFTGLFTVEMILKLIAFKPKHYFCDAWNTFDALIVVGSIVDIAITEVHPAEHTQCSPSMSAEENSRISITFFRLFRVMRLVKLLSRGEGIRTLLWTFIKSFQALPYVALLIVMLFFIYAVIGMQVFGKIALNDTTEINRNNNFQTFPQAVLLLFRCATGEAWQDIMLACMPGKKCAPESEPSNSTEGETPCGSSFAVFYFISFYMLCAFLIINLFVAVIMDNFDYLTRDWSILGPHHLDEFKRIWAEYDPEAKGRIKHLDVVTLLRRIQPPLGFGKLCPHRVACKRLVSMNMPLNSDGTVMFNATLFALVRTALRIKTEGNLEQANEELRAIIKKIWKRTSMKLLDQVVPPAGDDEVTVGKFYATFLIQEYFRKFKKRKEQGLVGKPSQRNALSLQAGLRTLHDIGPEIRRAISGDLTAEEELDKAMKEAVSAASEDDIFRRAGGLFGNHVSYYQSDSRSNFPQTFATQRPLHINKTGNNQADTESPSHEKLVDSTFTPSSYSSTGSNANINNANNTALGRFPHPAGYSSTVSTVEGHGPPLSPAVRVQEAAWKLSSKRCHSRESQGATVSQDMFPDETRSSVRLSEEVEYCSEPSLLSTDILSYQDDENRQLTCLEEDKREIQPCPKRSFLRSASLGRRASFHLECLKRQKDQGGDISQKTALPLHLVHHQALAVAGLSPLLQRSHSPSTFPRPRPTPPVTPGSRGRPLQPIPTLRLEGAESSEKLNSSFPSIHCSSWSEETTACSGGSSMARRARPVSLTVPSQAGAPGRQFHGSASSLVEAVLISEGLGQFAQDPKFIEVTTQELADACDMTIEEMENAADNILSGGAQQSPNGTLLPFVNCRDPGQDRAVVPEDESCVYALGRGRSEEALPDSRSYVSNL
T1 sequence (P54290 25-1091 partner): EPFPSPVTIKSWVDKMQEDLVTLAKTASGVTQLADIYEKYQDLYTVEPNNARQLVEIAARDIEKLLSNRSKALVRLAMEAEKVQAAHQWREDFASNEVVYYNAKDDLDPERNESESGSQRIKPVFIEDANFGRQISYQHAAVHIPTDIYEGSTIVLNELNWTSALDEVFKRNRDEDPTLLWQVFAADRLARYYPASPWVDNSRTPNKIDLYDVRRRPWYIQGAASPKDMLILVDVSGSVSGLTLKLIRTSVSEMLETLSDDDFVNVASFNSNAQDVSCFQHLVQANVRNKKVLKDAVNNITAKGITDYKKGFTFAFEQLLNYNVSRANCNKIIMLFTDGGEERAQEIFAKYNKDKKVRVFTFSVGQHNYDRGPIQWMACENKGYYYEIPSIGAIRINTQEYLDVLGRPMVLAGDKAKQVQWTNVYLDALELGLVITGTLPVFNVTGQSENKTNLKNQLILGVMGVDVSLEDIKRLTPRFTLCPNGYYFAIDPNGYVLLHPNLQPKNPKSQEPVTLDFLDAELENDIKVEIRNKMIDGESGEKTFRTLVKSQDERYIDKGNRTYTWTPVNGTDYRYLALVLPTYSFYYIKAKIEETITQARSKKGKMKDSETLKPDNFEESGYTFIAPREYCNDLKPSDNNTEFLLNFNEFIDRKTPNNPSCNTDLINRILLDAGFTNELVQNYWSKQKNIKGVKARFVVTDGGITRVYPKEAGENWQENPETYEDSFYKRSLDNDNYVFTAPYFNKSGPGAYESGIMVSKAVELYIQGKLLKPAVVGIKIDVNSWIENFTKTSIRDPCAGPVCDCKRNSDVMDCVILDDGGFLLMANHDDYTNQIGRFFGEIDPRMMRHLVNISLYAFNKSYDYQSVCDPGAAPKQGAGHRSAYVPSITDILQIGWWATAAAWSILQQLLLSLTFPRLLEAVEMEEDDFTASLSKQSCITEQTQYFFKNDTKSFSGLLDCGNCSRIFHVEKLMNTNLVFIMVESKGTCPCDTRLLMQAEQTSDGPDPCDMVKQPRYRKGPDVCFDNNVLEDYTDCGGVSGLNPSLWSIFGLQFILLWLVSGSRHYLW
Experimental: The calcium channel blocking activity of the compounds was tested using a helically cut rat aortic strip in Krebs-Henselheit solution at 37° C., bubbled with a mixture of 95% O2 and 5% CO2. The isometrically registered contractions were induced by K^(+). depolarization. The test compounds were applied in a cumulative doses and the vasodilating activity thereof was expressed in calculated concentration of the test compound, causing 50% decrease of contraction of the aortic strip (IC50).

[2] = target: T2, α-adrenergic (Rattus norvegicus, UniProt P23944); test: α-adrenergic blocking activity, norepinephrine-induced contraction of helically cut rat aortic strip; details: 37° C., cumulative doses, read-out: IC50 (concentration causing 50% relaxation)
T2 construct: helically cut rat aortic strip; from tissue; host or cells: rat aorta (helically cut strip)
T2 sequence (P23944 1-561): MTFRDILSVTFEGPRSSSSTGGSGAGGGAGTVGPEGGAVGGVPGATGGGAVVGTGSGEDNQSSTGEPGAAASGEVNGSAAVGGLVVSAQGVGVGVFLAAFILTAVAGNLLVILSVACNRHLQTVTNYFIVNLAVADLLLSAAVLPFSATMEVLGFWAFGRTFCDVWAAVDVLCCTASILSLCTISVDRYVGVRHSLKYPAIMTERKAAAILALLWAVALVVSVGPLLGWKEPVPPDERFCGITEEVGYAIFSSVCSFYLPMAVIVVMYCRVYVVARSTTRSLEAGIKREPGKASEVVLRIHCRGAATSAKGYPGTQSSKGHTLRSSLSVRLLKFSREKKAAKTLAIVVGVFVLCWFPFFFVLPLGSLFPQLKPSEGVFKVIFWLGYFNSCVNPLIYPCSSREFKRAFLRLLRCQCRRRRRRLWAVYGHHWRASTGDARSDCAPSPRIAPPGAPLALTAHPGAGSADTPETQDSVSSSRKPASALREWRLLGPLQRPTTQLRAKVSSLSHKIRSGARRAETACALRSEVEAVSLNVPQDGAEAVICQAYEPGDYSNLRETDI
Experimental: a) The α-adrenergic blocking activity of the compounds was tested using a helically cut rat aortic strip in a Krebs-Henselheit solution at 37° C., bubbled with a mixture of 95% O2 and 5% CO2. Norepinephrine induced contractions were detected isometrically. The compounds were added in cumulative doses and the relaxing activity was expressed in per cents of the maximum norepinephrine contraction.

[3] = test system: blood pressure; test: Hypotensive activity, pentobarbital anaesthesized rabbits; type: in vivo, rabbit; details: i.v.
From the text: (§1) a) The blood pressure of pentobarbital anaesthesized rabbits was registered invasively in arteria femoralis. The average decrease in systolic (SBP) and diastolic (DBP) blood pressure expressed in per cents of the starting blood pressure level after intravenous and oral administration is shown in Tables 3 and 4.

[4] = test system: blood pressure; test: Hypotensive activity, pentobarbital anaesthesized dogs; type: in vivo, dog; details: i.v.
From the text: as §1, with “b) The” for “a) The”, “anaesthesized dogs” for “anaesthesized rabbits”, “(SBP) arid” for “(SBP) and”, “Tables 5” for “Tables 3”, “and 6.” for “and 4.”

[5] = test system: rat peripheral venous thrombosis; test: Antithrombotic activity, rat peripheral venous thrombosis in closed abdominal part of vena cava; type: in vivo; details: po, rats, orally, read-out: statistically significant effective dose (mass of thrombi)
Experimental: The antithrombotic activity of the test compounds was established using the model of rat peripheral venous thrombosis in a closed abdominal part of vena cava. The thrombus was induced by intravenous administration of hypotonic solution of sodium chloride. The thrombus was freed 10 minutes after induction and weighted. The mass of thrombi in control animals was compared to the mass of thrombi of animals administered by the test compound. The statistically significant effective dose for compound VUFB 17951 was 0.5 mg/kg intravenously and 5 mg/kg orally and for the compound VUFB 17959 0.25 mg/kg and 1.0 mg/kg, respectively. The corresponding dose of a standard (Cilostazol, generic name, Merck index, 11th Edition, 2277) was 25 mg/kg orally.

[6] = 0.4 mg/kg, value 1 of 5 (heads 5/30/60/180 min; probably 1 min)
[7] = 0.4 mg/kg, value 2 of 5 (heads 5/30/60/180 min; probably 5 min)
[8] = 0.4 mg/kg, value 3 of 5 (heads 5/30/60/180 min; probably 30 min)
[9] = 0.4 mg/kg, value 4 of 5 (heads 5/30/60/180 min; probably 60 min)
[10] = 0.4 mg/kg, value 5 of 5 (heads 5/30/60/180 min; probably 180 min)
[11] = 4.0 mg/kg, value 1 of 5 (heads 5/30/60/180 min; probably 1 min)
[12] = 4.0 mg/kg, value 2 of 5 (heads 5/30/60/180 min; probably 5 min)
[13] = 4.0 mg/kg, value 3 of 5 (heads 5/30/60/180 min; probably 30 min)
[14] = 4.0 mg/kg, value 4 of 5 (heads 5/30/60/180 min; probably 60 min)
[15] = 4.0 mg/kg, value 5 of 5 (heads 5/30/60/180 min; probably 180 min)
[16] = 4.6 mg/kg, value 1 of 5 (heads 5/30/60/180 min; probably 1 min)
[17] = 4.6 mg/kg, value 2 of 5 (heads 5/30/60/180 min; probably 5 min)
[18] = 4.6 mg/kg, value 3 of 5 (heads 5/30/60/180 min; probably 30 min)
[19] = 4.6 mg/kg, value 4 of 5 (heads 5/30/60/180 min; probably 60 min)
[20] = 4.6 mg/kg, value 5 of 5 (heads 5/30/60/180 min; probably 180 min)
[21] = 4.5 mg/kg, value 1 of 5 (heads 5/30/60/180 min; probably 1 min)
[22] = 4.5 mg/kg, value 2 of 5 (heads 5/30/60/180 min; probably 5 min)
[23] = 4.5 mg/kg, value 3 of 5 (heads 5/30/60/180 min; probably 30 min)
[24] = 4.5 mg/kg, value 4 of 5 (heads 5/30/60/180 min; probably 60 min)
[25] = 4.5 mg/kg, value 5 of 5 (heads 5/30/60/180 min; probably 180 min)

In the case of `CC(C)C(C#N)(CCCNCC1COc2ccccc2O1)c1ccccc1` (racemic) [VUFB 18087, 5-(2,3-dihydro-1,4-benzodioxin-2-ylmethylamino)-2-phenyl-2-isopropyl valeronitrile], the IC50 [1] is reported as 8.5 µM, the IC50 [2] is reported as 76 µM and the “decrease in diastolic blood pressure (DBP)” value (from here on “decrease … (DBP)”) ([3]; 0.4 mg/kg, 1 min) is reported as -32 per cents. The “decrease in systolic blood pressure (SBP)” value (from here on “decrease … (SBP)”) ([3]; 0.4 mg/kg, 1 min) was -10 per cents, the “decrease … (DBP)” value ([3]; 0.4 mg/kg, 5 min) was -16 per cents and the “decrease … (SBP)” value ([3]; 0.4 mg/kg, 5 min) was -19 per cents. The “decrease … (DBP)” value ([3]; 0.4 mg/kg, 30 min) was -18 per cents, the “decrease … (SBP)” value ([3]; 0.4 mg/kg, 30 min) was -17 per cents and the “decrease … (DBP)” value ([3]; 0.4 mg/kg, 60 min) was -16 per cents. The “decrease … (SBP)” value ([3]; 0.4 mg/kg, 60 min) was -17 per cents, the “decrease … (DBP)” value ([3]; 0.4 mg/kg, 180 min) was -8 per cents and the “decrease … (SBP)” value ([3]; 0.4 mg/kg, 180 min) was -14 per cents. The “decrease … (DBP)” value ([3]; 4.0 mg/kg, 1 min) was -58 per cents, the “decrease … (SBP)” value ([3]; 4.0 mg/kg, 1 min) was -45 per cents and the “decrease … (DBP)” value ([3]; 4.0 mg/kg, 5 min) was -43 per cents. For the same molecule, the “decrease … (SBP)” value ([3]; 4.0 mg/kg, 5 min) was -45 per cents, the “decrease … (DBP)” value ([3]; 4.0 mg/kg, 30 min) was -29 per cents and the “decrease … (SBP)” value ([3]; 4.0 mg/kg, 30 min) was -30 per cents. The “decrease … (DBP)” value ([3]; 4.0 mg/kg, 60 min) was -29 per cents, the “decrease … (SBP)” value ([3]; 4.0 mg/kg, 60 min) was -31 per cents and the “decrease … (DBP)” value ([3]; 4.0 mg/kg, 180 min) was -32 per cents. The “decrease … (SBP)” value ([3]; 4.0 mg/kg, 180 min) was -28 per cents, the “decrease … (DBP)” value [4, 6] was -37 per cents and the “decrease … (SBP)” value [4, 6] was -33 per cents. For the same molecule, the “decrease … (DBP)” value [4, 7] was -27 per cents, the “decrease … (SBP)” value [4, 7] was -29 per cents and the “decrease … (DBP)” value [4, 8] was -27 per cents. The “decrease … (SBP)” value [4, 8] was -29 per cents, the “decrease … (DBP)” value [4, 9] was -13 per cents and the “decrease … (SBP)” value [4, 9] was -19 per cents. The “decrease … (DBP)” value [4, 10] was -13 per cents, the “decrease … (SBP)” value [4, 10] was -4 per cents and the “decrease … (DBP)” value [4, 11] was -62 per cents. For the same molecule, the “decrease … (SBP)” value [4, 11] was -49 per cents, the “decrease … (DBP)” value [4, 12] was -31 per cents and the “decrease … (SBP)” value [4, 12] was -32 per cents. For the same molecule, the “decrease … (DBP)” value [4, 13] was -31 per cents, the “decrease … (SBP)” value [4, 13] was -31 per cents and the “decrease … (DBP)” value [4, 14] was -26 per cents. The “decrease … (SBP)” value [4, 14] was -27 per cents, the “decrease … (DBP)” value [4, 15] was -26 per cents and the “decrease … (SBP)” value [4, 15] was -22 per cents.
For `COc1ccc(C(C#N)(CCCNCC2COc3ccccc3O2)C(C)C)cc1OC` (single isomer, unassigned) [VUFB 18020, 5-[(-)-2,3-dihydro-1,4-benzodioxin-2-ylmethylamino]-2-(3,4-dimeth-oxyphenyl)-2-isopropyl valeronitrile], the IC50 [1] was 25 µM, the “decrease … (DBP)” value [4, 16] was -63 per cents and the “decrease … (SBP)” value [4, 16] was -46 per cents. The “decrease … (DBP)” value [4, 17] was -63 per cents, the “decrease … (SBP)” value [4, 17] was -58 per cents and the “decrease … (DBP)” value [4, 18] was -45 per cents. The “decrease … (SBP)” value [4, 18] was -43 per cents, the “decrease … (DBP)” value [4, 19] was -37 per cents and the “decrease … (SBP)” value [4, 19] was -35 per cents. For the same molecule, the “decrease … (DBP)” value [4, 20] was -34 per cents and the “decrease … (SBP)” value [4, 20] was -40 per cents.
For `Cc1ccccc1C(C#N)(CCCNCC1COc2ccccc2O1)C(C)C` (single isomer, unassigned) [VUFB 18007, 5-[(+)-2,3-dihydro-1,4-benzodioxin-2-ylmethylamino]-2-isopropyl-2- -(2-methylphenyl) valeronitrite], the IC50 [1] was 15 µM, the “decrease … (DBP)” value [4, 21] was -66 per cents and the “decrease … (SBP)” value [4, 21] was -47 per cents. The “decrease … (DBP)” value [4, 22] was -41 per cents, the “decrease … (SBP)” value [4, 22] was -33 per cents and the “decrease … (DBP)” value [4, 23] was -25 per cents. For the same molecule, the “decrease … (SBP)” value [4, 23] was -27 per cents, the “decrease … (DBP)” value [4, 24] was -19 per cents and the “decrease … (SBP)” value [4, 24] was -22 per cents. For the same molecule, the “decrease … (DBP)” value [4, 25] was -12 per cents and the “decrease … (SBP)” value [4, 25] was -17 per cents.
For `COc1ccc(C(C#N)(CCCNCC2COc3ccccc3O2)C(C)C)cc1OC` (single isomer, unassigned) [VUFB 18019, 5-[(+)-2,3-dihydro-1,4-benzodioxin-2-ylmethylamino]-2-(3,4-dimethoxyphenyl)-2-isopropyl valeronitrile], the IC50 [1] was 16 µM, the “decrease … (DBP)” value [4, 16] was -54 per cents and the “decrease … (SBP)” value [4, 16] was -17 per cents. The “decrease … (DBP)” value [4, 17] was -32 per cents, the “decrease … (SBP)” value [4, 17] was -32 per cents and the “decrease … (DBP)” value [4, 18] was -8 per cents. The “decrease … (SBP)” value [4, 18] was -26 per cents, the “decrease … (DBP)” value [4, 19] was -14 per cents and the “decrease … (SBP)” value [4, 19] was -16 per cents. The “decrease … (DBP)” value [4, 20] was -8 per cents and the “decrease … (SBP)” value [4, 20] was -14 per cents.
With `Cc1ccccc1C(C#N)(CCCNCC1COc2ccccc2O1)C(C)C` (single isomer, unassigned) [VUFB 18018, 5-[(-)-2,3-dihydro-1,4-benzodioxin-2-ylmethylamino]-2-isopropyl-2- -(2-methylphenyl) valeronitrile] the IC50 [1] was 15 µM, the “decrease … (DBP)” value [4, 21] was -54 per cents and the “decrease … (SBP)” value [4, 21] was -40 per cents. The “decrease … (DBP)” value [4, 22] was -46 per cents, the “decrease … (SBP)” value [4, 22] was -42 per cents and the “decrease … (DBP)” value [4, 23] was -29 per cents. The “decrease … (SBP)” value [4, 23] was -30 per cents, the “decrease … (DBP)” value [4, 24] was -24 per cents and the “decrease … (SBP)” value [4, 24] was -22 per cents. For the same molecule, the “decrease … (DBP)” value [4, 25] was -22 per cents and the “decrease … (SBP)” value [4, 25] was -21 per cents.
Work on `O=C1CCc2cc(OCCCCc3nnnn3C3CCCCC3)ccc2N1` [Cilostazol, reference compound] yielded a minimal effective dose [5] of 25 mg/kg.
